Here are results for one compound from patent publication US20120220580A1, “PREPARATION OF CAROTENOID DERIVATIVES AND THEIR APPLICATIONS” (BEIJING GINGKO GROUP BIOLOGICAL TECHNOLOGY CO., LTD., priority 2009, published 2012).

In experiment [1] the test system is nutritional obesity rats. Put plainly: Body weight of nutritional obesity rats on high-fat feed, intragastric drug for 30 d (Example 17). Also: test concentration or dose not given here. In kind it is in vivo, rat. To be noted: Table 1, high-fat feed, x ± s. The method, then:
(§1) Fucoxanthin group and test animal groups were administrated with same doses of the drugs. The basal feed control group continued to be fed with basal feed, other groups with high-fat feed. The basal feed- and model control groups were intragastric administrated with distilled water, the other, drug-administrated groups with respective doses of drug, the administration were carried out uninterruptedly for 30 d. Each group of the animals were bred in different hutches, the room temperature was controlled within (22±2)° C., using natural illumination, the animals took food and drank freely. The body weights of the animals were measured one time each week, feed-intakes of the rats were also observed and recorded. After 30 days the rats were weighed. Statistical analysis: Variance analysis of the data collected in this experiment was implemented by SAS software package, Dunnett's t-test was used for inter-group comparative analysis, p<0.05 was used as the criterion of statistical significance.

In experiment [2] the test system is nutritional obesity rats. Put plainly: Weight of fat pads around testicles of nutritional obesity rats (Example 18). To be noted: after 30 d administration, x ± s. Type of experiment: in vivo, rat. The method, then: as §1, with “significance. Experimental procedures were the same as in Example 17. […] Statistical analysis was the same as in Example 16.” for “significance.”

Experiment [3] has as its system nutritional obesity model rats. Put plainly: Weight of fat pads around kidneys of nutritional obesity model rats (Example 19). In kind it is in vivo, rat. The following applies: after 30 d administration, x ± s. The method, then:
as §1, with “significance. Experimental procedures were the same as in Example 17. […] Statistical analysis was the same as in Example 16.” for “significance.”

Experiment [4] deals with nutritional obesity rats. Put plainly: Weight of abdomen fat of nutritional obesity rats (Example 20). Type of experiment: in vivo, rat. The following applies: after 30 d administration, x ± s. The method, then: as §1, with “significance. Experimental procedures were the same as in Example 17. […] Statistical analysis was the same as in Example 16.” for “significance.”
For experiment [5] the following is noted: compared with fucoxanthin; cited from earlier work.

For the compound `C\C(C=C=C1C(C)(C)CC(O)C[C@@]1(C)O)=C/C=C/C(C)=C/C=C/C=C(C)/C=C/C=C(\C)C(=O)CC12OC1(C)CC(O)CC2(C)C` (stereo partly drawn) [fucoxanthol, reference compound], the “Body weight(g) (After-experiment)” value in the experiment on nutritional obesity rats [1] (after 30 d intragastric administration) is 527.00 ± 18.89ΔΔ g. Moreover, the “Body weight(g) increased” value in the experiment with nutritional obesity rats [1] (increase over 30 d of administration) was 39.39 ± 18.11ΔΔ g. The “Body weight(g) (After-experiment)” value in the experiment on nutritional obesity rats [2] (Table 2) amounted to 527.00 ± 18.89 g. Also, in the experiment on nutritional obesity rats [2], the “Weight fat pads around testicles(g)” value was 7.00 ± 0.67ΔΔ g and the “Weight fat pads around testicles/bw × 100” value was 1.25 ± 0.13ΔΔ. Further, in experiment [3] (Table 3), the “Body weight(g) (After-experiment)” value is recorded as 527.00 ± 18.89 g. Further, in experiment [3], the “Weight fat pads around kidneys(g)” value is recorded as 7.0 ± 0.58ΔΔ g and the “Weight fat pads around kidneys/bw × 100” value was 1.20 ± 0.10ΔΔ. The “Body weight(g) (After-experiment)” value in the experiment on nutritional obesity rats [4] (Table 4) amounted to 527.00 ± 18.89 g. In the experiment with nutritional obesity rats [4], the “Weight abdomen fat/bw × 100” value is on record as 1.60 ± 0.11ΔΔ and the “Weight. abdomenfat (g)” value is reported as 7.91 ± 0.11ΔΔ g. For the same compound, the weight-reducing activity result in experiment [5] is “much stronger than fucoxanthin”.
